Like-named read-outs stand apart in the source and are kept apart here.
Test system: androgen receptor

For `C[C@]12CC[C@H]3[C@@H](CCC4=CC(=O)CC[C@@]43C)[C@@H]1CC[C@@H]2O` [testosterone], the “luciferase induction over untreated” value (bone, testosterone 2 mg/kg s.c.) was 3.3 fold, the “luciferase response in kidney (testosterone induction)” value (kidney, testosterone 2 mg/kg s.c.) was “No response” and the “luciferase induction over untreated” value (prostate-seminal vesicles, testosterone 2 mg/kg s.c.) was 5.6 fold. The “luciferase induction over untreated” value (quadriceps, testosterone 2 mg/kg s.c.) was 5.8 fold.

`CC(O)(CS(=O)(=O)c1ccc(F)cc1)C(=O)Nc1ccc(C#N)c(C(F)(F)F)c1` (centres unmarked) [bicalutamide] was tested, and the “inhibition of the testosterone effect (luciferase expression)” value (shortened to “inhibition of the testosterone effect”) (bone, Casodex 50 mg/kg p.o. with testosterone 2 mg/kg s.c.) was 86%, the “luciferase response in kidney (inhibition of testosterone effect)” value (kidney, Casodex 50 mg/kg p.o. with testosterone 2 mg/kg s.c.) was “No response” and the “inhibition of the testosterone effect” value (prostate-seminal vesicles, Casodex 50 mg/kg p.o. with testosterone 2 mg/kg s.c.) was 90%. For the same molecule, the “inhibition of the testosterone effect” value (quadriceps, Casodex 50 mg/kg p.o. with testosterone 2 mg/kg s.c.) was 92%.

Source: patent US20040068762A1, “Transgenic non-human mammals expressing a reporter nucleic acid under the regulation of androgen response elements” (priority 2002, published 2004)
